Reference: the NIST ThermoML archive (doi:10.1021/je050261u)
± gives the expanded uncertainty stated by the source.

Experiment: xn = mol fraction of the nth substance listed
Conditions: Liquid, Vibrating tube method

CCCCCCC [heptane] + CCO
mass density [kg/m3]
Conditions | x2 = 0 | x2 = 0.125 | x2 = 0.25 | x2 = 0.375 | x2 = 0.5 | x2 = 0.625 | x2 = 0.75 | x2 = 0.875
313.15 K, 35000 kPa | 696.9 ± 1.1 | 701.6 ± 1.1 | 707 ± 1.1 | 714.3 ± 1.1 | 723.6 ± 1.1 | 735 ± 1.1 | 750.3 ± 1.1 | 770.6 ± 1.1
313.15 K, 40000 kPa | 700.4 ± 1.2 | 705.2 ± 1.2 | 710.6 ± 1.2 | 717.9 ± 1.1 | 727.2 ± 1.1 | 738.6 ± 1.1 | 753.8 ± 1.1 | 774.1 ± 1.1
313.15 K, 45000 kPa | 703.9 ± 1.2 | 708.6 ± 1.2 | 714.1 ± 1.2 | 721.3 ± 1.2 | 730.8 ± 1.2 | 742.1 ± 1.1 | 757.3 ± 1.1 | 777.6 ± 1.1
313.15 K, 50000 kPa | 707.1 ± 1.2 | 711.9 ± 1.2 | 717.4 ± 1.2 | 724.7 ± 1.2 | 734.1 ± 1.2 | 745.4 ± 1.2 | 760.6 ± 1.1 | 780.9 ± 1.1
313.15 K, 55000 kPa | 710.1 ± 1.2 | 715.1 ± 1.2 | 720.6 ± 1.2 | 727.9 ± 1.2 | 737.3 ± 1.2 | 748.6 ± 1.2 | 763.8 ± 1.2 | 784.1 ± 1.1
313.15 K, 60000 kPa | 713.1 ± 1.3 | 718.1 ± 1.3 | 723.6 ± 1.2 | 730.9 ± 1.2 | 740.2 ± 1.2 | 751.6 ± 1.2 | 766.9 ± 1.2 | 787.1 ± 1.2
313.15 K, 65000 kPa | 716 ± 1.3 | 721 ± 1.3 | 726.6 ± 1.3 | 733.9 ± 1.3 | 743.2 ± 1.2 | 754.7 ± 1.2 | 769.9 ± 1.2 | 790.1 ± 1.2
323.15 K, 100 kPa | 657.7 ± 1 | 661.8 ± 1 | 666.9 ± 1 | 674.1 ± 1 | 683.5 ± 1 | 695 ± 1 | 710.6 ± 1 | 731.7 ± 1
323.15 K, 5000 kPa | 663.4 ± 1 | 667.4 ± 1 | 672.6 ± 1 | 679.7 ± 1 | 689.2 ± 1 | 700.5 ± 1 | – | –
